Data on 5 compounds can be found in US20240270821A1, “GIP/GLP1/GCG TRI-RECEPTOR AGONISTS AND USES THEREOF” (priority 2023, published 2024).

Where two headings read alike, the source gives them in different places.

In general, EC50 refers to the concentration needed to bring the measured effect to its halfway point.

Holding throughout (format): cell-based
One experiment has as its target human GcgR (Homo sapiens, UniProt P47871). The experiment can be described thus: Functional cAMP activity in the presence of 1% HSA. The note with it: read-out: cAMP Rel EC50, hGcgR.
The target in experiment [1] is T1, hGLP-1R (Homo sapiens, UniProt P43220). Kind of experiment: Functional cAMP activation in the presence of 0.1% casein (no HSA). The note with it: read-out: Relative cAMP EC50, hGLP-1R.
T1 sequence (P43220 24-463): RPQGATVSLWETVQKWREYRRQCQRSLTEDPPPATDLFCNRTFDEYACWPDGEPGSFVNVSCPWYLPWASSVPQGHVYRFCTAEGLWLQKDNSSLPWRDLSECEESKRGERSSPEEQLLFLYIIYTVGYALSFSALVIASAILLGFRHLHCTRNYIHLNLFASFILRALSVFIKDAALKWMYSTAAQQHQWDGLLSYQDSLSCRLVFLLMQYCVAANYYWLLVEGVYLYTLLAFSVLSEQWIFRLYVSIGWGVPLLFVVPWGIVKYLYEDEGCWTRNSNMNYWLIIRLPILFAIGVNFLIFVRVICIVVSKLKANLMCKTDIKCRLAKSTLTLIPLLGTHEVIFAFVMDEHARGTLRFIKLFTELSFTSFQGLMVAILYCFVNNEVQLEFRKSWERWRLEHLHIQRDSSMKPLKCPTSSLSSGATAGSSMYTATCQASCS
Experiment [2] has as its target T1, hGLP-1R. Kind of experiment: Functional cAMP activity in the presence of 1% HSA. The note with it: read-out: cAMP Rel EC50, hGLP-1R.
Experiment [3] concerns the target T2, hGIPR (Homo sapiens, UniProt P48546).
T2 sequence (P48546 22-466): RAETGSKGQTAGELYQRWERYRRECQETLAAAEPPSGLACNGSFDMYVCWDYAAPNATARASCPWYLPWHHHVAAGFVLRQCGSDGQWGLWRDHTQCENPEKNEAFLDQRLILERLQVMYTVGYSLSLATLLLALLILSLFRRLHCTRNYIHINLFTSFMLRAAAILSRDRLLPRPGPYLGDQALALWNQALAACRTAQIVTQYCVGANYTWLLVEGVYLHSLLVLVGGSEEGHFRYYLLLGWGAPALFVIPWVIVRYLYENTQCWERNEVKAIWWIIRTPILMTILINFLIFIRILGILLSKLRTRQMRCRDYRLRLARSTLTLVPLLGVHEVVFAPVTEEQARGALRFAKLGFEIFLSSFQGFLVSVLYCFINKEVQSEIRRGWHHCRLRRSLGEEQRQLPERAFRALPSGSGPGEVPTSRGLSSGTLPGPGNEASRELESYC
The experiment can be described thus: Functional cAMP activation in the presence of 0.1% casein (no HSA). The note with it: read-out: Relative cAMP EC50, hGIPR.

The next experiment has as its target hGcgR (Homo sapiens, UniProt P47871). The description is as above. The note with it: read-out: Relative cAMP EC50, hGcgR.
Experiment [4] deals with T2, hGIPR. The experiment can be described thus: Functional cAMP activity in the presence of 1% HSA. The note with it: read-out: cAMP Rel EC50, hGIPR.
The mark [5] stands for this setting: in the presence of 0.1% casein (no HSA), geometric mean.
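Throughout, for Relative cAMP EC50, hGIPR: intracellular cAMP rise after 30 min at 37 °C read by HTRF against a standard curve, scaled between buffer alone (0%) and top control ligand concentration (100%), four-parameter fit.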
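Throughout, for Relative cAMP EC50, hGLP-1R: intracellular cAMP rise after 30 min at 37 °C read by HTRF, normalized between buffer only (0%) and maximal control ligand (100%), four-parameter variable-slope fit.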
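Throughout, for Relative cAMP EC50, hGcgR: intracellular cAMP rise after 30 min at 37 °C, read by HTRF against a cAMP standard curve, scaled from buffer only (0%) to maximal control ligand response (100%).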

Chain of human GcgR (P47871 26-477): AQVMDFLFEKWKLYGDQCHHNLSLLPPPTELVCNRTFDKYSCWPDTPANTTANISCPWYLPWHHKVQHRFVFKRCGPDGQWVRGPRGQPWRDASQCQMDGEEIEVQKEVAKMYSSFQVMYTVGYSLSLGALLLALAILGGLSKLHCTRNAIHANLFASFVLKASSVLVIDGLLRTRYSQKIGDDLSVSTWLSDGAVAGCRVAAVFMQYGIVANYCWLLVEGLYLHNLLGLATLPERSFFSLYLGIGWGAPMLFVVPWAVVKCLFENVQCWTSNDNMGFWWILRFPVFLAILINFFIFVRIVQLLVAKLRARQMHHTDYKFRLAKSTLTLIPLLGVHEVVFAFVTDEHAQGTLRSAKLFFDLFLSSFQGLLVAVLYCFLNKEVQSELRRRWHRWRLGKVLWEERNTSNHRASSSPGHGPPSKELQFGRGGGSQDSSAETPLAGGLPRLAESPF
Chain of hGcgR (P47871 26-477): as above

For the compound `CC[C@H](C)[C@H](NC(=O)[C@H](Cc1ccccc1)NC(=O)[C@H](C)NC(=O)[C@](C)(Cc1ccncc1)NC(=O)[C@H](CCC(N)=O)NC(=O)[C@H](C)NC(=O)[C@H](CCCCNC(=O)CC[C@H](NC(=O)CC[C@H](NC(=O)CCCCCCCCCCCCCCCCC(=O)O)C(=O)O)C(=O)O)NC(=O)[C@H](CCCN)NC(=O)[C@H](CC(=O)O)NC(=O)[C@H](CC(C)C)NC(=O)[C@](C)(CC(C)C)NC(=O)[C@H](CCC(N)=O)NC(=O)[C@H](CO)NC(=O)[C@H](Cc1ccncc1)NC(=O)[C@H](CC(=O)O)NC(=O)[C@H](CO)NC(=O)[C@@H](NC(=O)[C@H](Cc1ccccc1)NC(=O)[C@@H](NC(=O)CNC(=O)[C@H](CCC(N)=O)NC(=O)C(C)(C)NC(=O)[C@@H](N)Cc1ccc(O)cc1)[C@@H](C)O)[C@@H](C)O)C(=O)N[C@@H](CCC(=O)O)C(=O)N[C@@H](Cc1ccc(O)cc1)C(=O)N[C@@H](CC(C)C)C(=O)N[C@H](C(=O)N[C@@H](CCC(=O)O)C(=O)N[C@H](C)C(=O)NCC(=O)N1CCC[C@H]1C(=O)N[C@@H](CO)C(=O)N[C@@H](CO)C(=O)NCC(=O)N[C@@H](C)C(=O)N1CCC[C@H]1C(=O)N1CCC[C@H]1C(=O)N1CCC[C@H]1C(=O)N[C@@H](CCC(=O)O)C(=O)NCC(=O)N[C@@H](CO)C(N)=O)[C@@H](C)CC` [Example 1021], the concentration giving a half-maximal response (EC50) at human GcgR was 588 nM; at hGLP-1R [1] (setting [5]), 1.3 nM; at hGLP-1R [2], 174 nM; on hGIPR [3] (setting [5]) it was 0.22 nM; at hGcgR (setting [5]), 4.39 nM.
Turning to `CC[C@H](C)[C@H](NC(=O)[C@H](CC(C)C)NC(=O)[C@H](Cc1ccc(O)cc1)NC(=O)[C@H](CCC(=O)O)NC(=O)[C@@H](NC(=O)[C@H](Cc1ccccc1)NC(=O)[C@H](C)NC(=O)[C@](C)(Cc1ccncc1)NC(=O)[C@H](CCC(N)=O)NC(=O)[C@H](C)NC(=O)[C@H](CCCCNC(=O)COCCOCCNC(=O)CC[C@H](NC(=O)CCCCCCCCCCCCCCCCC(=O)O)C(=O)O)NC(=O)[C@H](CCCCN)NC(=O)[C@H](CC(=O)O)NC(=O)[C@H](CC(C)C)NC(=O)[C@](C)(CC(C)C)NC(=O)[C@H](CCCN)NC(=O)[C@H](CO)NC(=O)[C@H](Cc1ccncc1)NC(=O)[C@H](CC(=O)O)NC(=O)[C@H](CO)NC(=O)[C@@H](NC(=O)[C@H](Cc1ccccc1)NC(=O)[C@@H](NC(=O)CNC(=O)[C@H](CCC(N)=O)NC(=O)C(C)(C)NC(=O)[C@@H](N)Cc1ccc(O)cc1)[C@@H](C)O)[C@@H](C)O)[C@@H](C)CC)C(=O)N[C@@H](CCC(=O)O)C(=O)NCC(=O)NCC(=O)N[C@@H](CCC(=O)O)C(=O)N[C@@H](CO)C(=O)N[C@@H](CO)C(=O)NCC(=O)N[C@@H](C)C(=O)N1CCC[C@H]1C(=O)N1CCC[C@H]1C(=O)N1CCC[C@H]1C(=O)N[C@@H](CO)C(=O)NCC(=O)N[C@@H](CO)C(N)=O` [Example 791], the EC50 is 456 nM at human GcgR; 980 nM on hGLP-1R [2]; 0.979 nM at hGIPR [3] (setting [5]); 2.36 nM at hGcgR (setting [5]); 143 nM at hGIPR [4].
For `CC[C@H](C)[C@H](NC(=O)[C@H](Cc1ccccc1)NC(=O)[C@H](C)NC(=O)C(C)(C)NC(=O)[C@H](CCC(N)=O)NC(=O)[C@H](C)NC(=O)[C@H](CCCCNC(=O)CC[C@H](NC(=O)CC[C@H](NC(=O)CCCCCCCCCCCCCCCCC(=O)O)C(=O)O)C(=O)O)NC(=O)[C@H](CCCCN)NC(=O)[C@H](CC(=O)O)NC(=O)[C@H](CC(C)C)NC(=O)[C@H](CC(C)C)NC(=O)[C@@H](NC(=O)[C@H](CO)NC(=O)[C@H](Cc1ccc(O)cc1)NC(=O)[C@H](CC(=O)O)NC(=O)[C@H](CO)NC(=O)[C@@H](NC(=O)[C@](C)(Cc1ccccc1F)NC(=O)[C@@H](NC(=O)CNC(=O)[C@H](CCC(N)=O)NC(=O)C(C)(C)NC(=O)[C@@H](N)Cc1ccc(O)cc1)[C@@H](C)O)[C@@H](C)O)[C@@H](C)CC)C(=O)N[C@@H](CCC(=O)O)C(=O)N[C@@H](Cc1ccc(O)cc1)C(=O)N[C@@H](CC(C)C)C(=O)N[C@@H](CCC(=O)O)C(=O)N[C@@H](CCC(=O)O)C(=O)NCC(=O)NCC(=O)N1CCC[C@H]1C(=O)N[C@@H](CO)C(=O)N[C@@H](CO)C(=O)NCC(=O)N[C@@H](CCC(=O)O)C(=O)N1CCC[C@H]1C(=O)N1CCC[C@H]1C(=O)N1CCC[C@H]1C(=O)N[C@@H](CO)C(N)=O` [Example 432], the EC50 on human GcgR was 384 nM; on hGLP-1R [1], 0.431 nM; on hGLP-1R [2], 41.7 nM; on hGIPR [3], 0.0297 nM; at hGcgR, 1.6 nM.
On to `CC[C@H](C)[C@H](NC(=O)[C@H](Cc1ccccc1)NC(=O)[C@H](C)NC(=O)C(C)(C)NC(=O)[C@H](C)NC(=O)[C@H](C)NC(=O)[C@H](CCCCNC(=O)COCCOCCNC(=O)CC[C@H](NC(=O)CCCCCCCCCCCCCCCCC(=O)O)C(=O)O)NC(=O)[C@H](CCCCN)NC(=O)[C@H](CC(=O)O)NC(=O)[C@H](CC(C)C)NC(=O)[C@](C)(CC(C)C)NC(=O)[C@@H](NC(=O)[C@H](CO)NC(=O)[C@H](Cc1ccc(O)cc1)NC(=O)[C@H](CC(=O)O)NC(=O)[C@H](CO)NC(=O)[C@@H](NC(=O)[C@](C)(Cc1ccccc1F)NC(=O)[C@@H](NC(=O)CNC(=O)[C@H](CCC(N)=O)NC(=O)C(C)(C)NC(=O)[C@@H](N)Cc1c[nH]cn1)[C@@H](C)O)[C@@H](C)O)[C@@H](C)CC)C(=O)N[C@@H](CCC(=O)O)C(=O)N[C@@H](Cc1ccc(O)cc1)C(=O)N[C@@H](CC(C)C)C(=O)N[C@H](C(=O)N[C@@H](CCC(=O)O)C(=O)N[C@H](C(=O)NCC(=O)N1CCC[C@H]1C(=O)N[C@@H](CO)C(=O)N[C@@H](CO)C(=O)NCC(=O)N[C@@H](CCC(=O)O)C(=O)N1CCC[C@H]1C(=O)N1CCC[C@H]1C(=O)N1CCC[C@H]1C(=O)N[C@@H](CO)C(=O)N[C@@H](CCC(=O)O)C(=O)NCC(N)=O)[C@@H](C)O)[C@@H](C)CC` [Example 291], for which the EC50 on human GcgR (HEK-293 clonal cells expressing hGcgR, in the presence of 1% HSA, geometric mean of relative EC50) is 311 nM; on hGLP-1R [1] (setting [5]), 0.22 nM; at hGLP-1R [2] (HEK-293 clonal cells expressing hGLP-1R, in the presence of 1% HSA, geometric mean of relative EC50), 24.5 nM; at hGIPR [3] (setting [5]), 0.26 nM; at hGcgR (setting [5]), 1.88 nM.
Consider `CC[C@H](C)[C@H](NC(=O)[C@H](Cc1ccccc1)NC(=O)[C@H](CCC(N)=O)NC(=O)C(C)(C)NC(=O)[C@H](CCC(N)=O)NC(=O)[C@H](C)NC(=O)[C@H](CCCCNC(=O)COCCOCCNC(=O)CC[C@H](NC(=O)CCCCCCCCCCCCCCCCCCC(=O)O)C(=O)O)NC(=O)[C@H](CCCCN)NC(=O)[C@H](CC(=O)O)NC(=O)[C@H](CC(C)C)NC(=O)[C@](C)(CC(C)C)NC(=O)[C@H](CCCCN)NC(=O)[C@H](CO)NC(=O)[C@H](Cc1ccccc1)NC(=O)[C@H](CC(=O)O)NC(=O)[C@H](CO)NC(=O)[C@@H](NC(=O)[C@H](Cc1ccccc1)NC(=O)[C@@H](NC(=O)CNC(=O)[C@H](CCC(N)=O)NC(=O)C(C)(C)NC(=O)[C@@H](N)Cc1ccc(O)cc1)[C@@H](C)O)[C@@H](C)O)C(=O)N[C@@H](CCC(=O)O)C(=O)N[C@@H](Cc1c[nH]c2ccccc12)C(=O)N[C@@H](CC(C)C)C(=O)N[C@@H](CC(C)C)C(=O)N[C@@H](CCC(=O)O)C(=O)NCC(=O)NCC(=O)N1CCC[C@H]1C(=O)N[C@@H](CO)C(=O)N[C@@H](CO)C(=O)NCC(=O)N[C@@H](C)C(=O)N1CCC[C@H]1C(=O)N1CCC[C@H]1C(=O)N1CCC[C@H]1C(=O)N[C@@H](CO)C(=O)N[C@@H](CCC(=O)O)C(=O)NCC(N)=O` [Example 38], for which the EC50 at human GcgR was 2770 nM; at hGLP-1R [2], 884 nM; at hGIPR [3] (setting [5]), 0.304 nM; at hGcgR (setting [5]), 9.5 nM; at hGIPR [4], 102 nM.
